Where “and” joins values, the source holds several entries; their conditions need not be identical. Identical values can stand only once. Entries after “also recorded” stand apart in the source; their conditions may differ.
Assays:
[1] = test system: transplantable mouse tumour originating in plasma cells; experiment: Depth of tumour necrosis after photosensitising drug and illumination (10J/cm^2) in mice; assay type: in vivo; conditions: for Necrosis (after 10J/cm^2), depth: ± S.E.M.
[2] = test system: transplantable mouse tumour originating in plasma cells; experiment: as above; assay type: in vivo; conditions: for effectiveness in DMSO versus alkali (in words): DMSO compared with alkali (NaOH); for effectiveness as photosensitiser for tumour tissue (in words): mouse assay; for Depths of tumour necrosis: 10J/cm^2 at 660nm, individual values
Procedure: The photosensitising drug is given intravenously in aqueous medium or intraperitoneally in DMSO, the tumour exposed to light at the appropriate wavelength and the depth of tumour necrosis measured. […] Results are shown in graph. The relative potency is determined by comparing amounts of drugs required to produce equal effects.
A preliminary comparison was made. […] The light dose was 10J/cm^2 at 660nm.

cranium (brain) of mice = experiment: Cerebral photosensitisation: deaths within 48 hours after white light to the cranium; assay type: in vivo, mouse; conditions: 0.033 μM/kg i.v., 24 hours later 20J/cm^2 white light to cranium
Procedure: Deaths within 48 hours (due to acute cerebral oedema) were: […]

brain vascular lining = experiment: Cerebral photosensitisation: Evans blue in the brain after white light to the cranium; assay type: in vivo, mouse; conditions: 0.033 μM/kg i.v., 20J/cm^2 white light; dye 4 hours after exposure, measured 1 hour later; groups of 5 mice
Procedure: Normally, very little is found, and this is largely dye still circulating in the blood 1 hour after injection, and not in the brain substance itself. An increase is produced by agents that damage the brain vascular lining, allowing dye to enter the brain substance.

depilated skin = experiment: Skin photosensitisation: increase in skin thickness after illumination; assay type: in vivo, mouse
Procedure: The increase in skin thickness was measured 4 hours after illumination.

Solubility = assay type: physicochemical

Oc1ccc(-c2c3nc(c(-c4ccc(O)cc4)c4ccc([nH]4)c(-c4ccc(O)cc4)c4nc(c(-c5ccc(O)cc5)c5ccc2[nH]5)C=C4)C=C3)cc1 [Na-HK7]
Necrosis (after 10J/cm^2), depth ([1]; 25 μM/kg, DMSO, 656 nm): 2.28 ± 0.47 mm
Necrosis (after 10J/cm^2), depth ([1]; 50 μM/kg, DMSO, 656 nm): 2.80 ± 0.12 mm and 3.79 ± 0.29 mm
Necrosis (after 10J/cm^2), depth ([1]; 50 μM/kg, NaOH, 664 nm): 3.15 ± 0.83 mm
necrosis depth ([1]; 12.5 μm/kg): below 1.0 mm

Oc1cccc(-c2c3nc(c(-c4cccc(O)c4)c4ccc([nH]4)c(-c4cccc(O)c4)c4nc(c(-c5cccc(O)c5)c5ccc2[nH]5)C=C4)C=C3)c1 [meta-HK7]
Necrosis (after 10J/cm^2), depth ([1]; 1.56 μM/kg, DMSO, 648 nm): 0.65 ± 0.22 mm
Necrosis (after 10J/cm^2), depth ([1]; 6.25 μM/kg, DMSO, 648 nm): 3.53 ± 0.49 mm and 2.88 ± 0.9 mm and 3.86 ± 0.18 mm
Necrosis (after 10J/cm^2), depth ([1]; 6.25 μM/kg, NaOH, 648 nm): 3.78 ± 0.36 mm and 3.64 ± 0.34 mm
Necrosis (after 10J/cm^2), depth ([1]; 12.5 μM/kg, DMSO, 648 nm): 4.44 ± 0.35 mm and 4.5 ± 0.5 mm
Necrosis (after 10J/cm^2), depth ([1]; 12.5 μM/kg, NaOH, 648 nm): 3.25 ± 0.33 mm
Necrosis (after 10J/cm^2), depth ([1]; 25.0 μM/kg, DMSO, 648 nm): 5.37 ± 0.55 mm
Necrosis (after 10J/cm^2), depth ([1]; 50.0 μM/kg, DMSO, 648 nm): 4.63 ± 0.64 mm
effectiveness in tumour necrosis (in words) ([1]; 1.56 μm/kg): some effect
effectiveness in tumour necrosis (in words) ([1]; 3.12 μm/kg): effective
effectiveness in DMSO versus alkali (in words) [2]: equally effective in both
effectiveness as photosensitiser for tumour tissue (in words) [2]: most active compound found

Oc1ccc(-c2c3nc(c(-c4ccc(O)cc4)c4ccc([nH]4)c(-c4ccc(O)cc4)c4nc(c(-c5ccc(O)cc5)c5ccc2[nH]5)C=C4)C=C3)cc1 [HK7.4EtOH]
Depths of tumour necrosis ([2]; 33 μM/kg, NaOH-DMSO): 0.25 mm and 0.5 mm and 0.75 mm and 2 mm
Depths of tumour necrosis ([2]; 67 μM/kg, DMSO): 3.75 mm and 4 mm (2×) and 5 mm

Oc1ccc(-c2c3nc(c(-c4ccc(O)cc4)c4ccc([nH]4)c(-c4ccc(O)cc4)c4nc(c(-c5ccc(O)cc5)c5ccc2[nH]5)C=C4)C=C3)cc1 [HK7, 5,10,15,20-tetra (4-hydroxyphenyl) porphyrin]
Necrosis (after 10J/cm^2), depth ([1]; 6.25 μM/kg, DMSO, 656 nm): 1.17 ± 0.31 mm and 0.85 ± 0.38 mm
Necrosis (after 10J/cm^2), depth ([1]; 12.5 μM/kg, DMSO, 656 nm): 2.86 ± 0.26 mm and 2.50 ± 0.52 mm
Necrosis (after 10J/cm^2), depth ([1]; 12.5 μM/kg, NaOH, 654 nm): 2.40 ± 0.10 mm
Necrosis (after 10J/cm^2), depth ([1]; 25 μM/kg, DMSO, 656 nm): 3.54 ± 0.48 mm and 2.63 ± 0.56 mm
Necrosis (after 10J/cm^2), depth ([1]; 25 μM/kg, NaOH, 654 nm): 3.64 ± 0.39 mm
Necrosis (after 10J/cm^2), depth ([1]; 25 μM/kg, NaOH, 669 nm): 2.75 ± 0.25 mm and 2.38 ± 0.24 mm
Necrosis (after 10J/cm^2), depth ([1]; 50 μM/kg, DMSO, 656 nm): 5.06 ± 0.48 mm
Necrosis (after 10J/cm^2), depth ([1]; 50 μM/kg, NaOH, 669 nm): 3.32 ± 0.63 mm and 3.25 ± 0.37 mm
effectiveness in tumour necrosis (in words) ([1]; 6.25 μm/kg): reasonably effective
tumour sensitisation at the dose of the cerebral test (in words) ([1]; 24 hours after dose, see graph): substantial tumour sensitisation
amount of drug required to produce equal effect (HK7 vs HpD) ([1]; i.v., 10J/cm^2, 630nm HpD, 658nm HK7): ~0.0125 µM/kg
Deaths within 48 hours (due to acute cerebral oedema) (cranium (brain) of mice): 0/5
amount of Evans blue in the brain (brain vascular lining): 23.6 ± 3.65 μg dye/brain
Depths of tumour necrosis ([2]; 33 μM/kg, NaOH-DMSO): 0.5 mm and 1.5 mm and 4.5 mm
Depths of tumour necrosis ([2]; 67 μM/kg, DMSO): 4 mm and 5 mm and 6 mm
effectiveness in DMSO versus alkali (in words) [2]: rather more effective administered in DMSO than in alkali
effectiveness as photosensitiser for tumour tissue (in words) [2]: more effective photosensitiser for tumour tissue in animal assay than is HpD
skin photosensitisation, by 1 week (depilated skin; 1 week, equimolar doses, 10J/cm^2, HK7 vs HpD): little difference
skin photosensitisation, by 2 weeks (depilated skin; 2 weeks, maximum dose, 10J/cm^2): no longer sensitises to this dose of light
skin photosensitisation, 1 day after porphyrin injection (depilated skin; 1 day, equimolar doses, 10J/cm^2 (625nm HpD, 656nm HK7)): more potent skin sensitiser than HpD
skin photosensitisation, potency and persistence (depilated skin; HK7 compared with HpD, overall): less persistant than that caused by HpD; also recorded: more potent skin photosensitiser than HpD, but that the effect is more transient
solubility in neutral aqueous media (Solubility): relatively insoluble in neutral aqueous media

O=S(=O)(O)c1ccc(-c2c3nc(c(-c4ccc(S(=O)(=O)O)cc4)c4ccc([nH]4)c(-c4ccc(S(=O)(=O)O)cc4)c4nc(c(-c5ccc(S(=O)(=O)O)cc5)c5ccc2[nH]5)C=C4)C=C3)cc1 [tetra-(p-hydroxysulphonyl phenyl) porphyrin, reference compound]
necrosis depth ([1]; molar equivalent dose to HpD 67 μmol/kg, saline, 550 nm): 0.30±0.11 mm

Oc1ccc(-c2c3nc(c(-c4ccc(O)cc4)c4ccc([nH]4)c(-c4ccc(O)cc4)c4nc(c(-c5ccc(O)cc5)c5ccc2[nH]5)C=C4)C=C3)cc1 [Li-HK7]
Necrosis (after 10J/cm^2), depth ([1]; 25 μM/kg, DMSO, 656 nm): 3.31 ± 0.40 mm and 3.00 ± 0.72 mm and 3.00 ± 0.51 mm
Necrosis (after 10J/cm^2), depth ([1]; 50 μM/kg, DMSO, 656 nm): 2.46 ± 0.38 mm and 3.50 ± 0.41 mm
necrosis depth ([1]; 12.5 μm/kg): below 1.0 mm

Oc1ccccc1-c1c2nc(c(-c3ccccc3O)c3ccc([nH]3)c(-c3ccccc3O)c3nc(c(-c4ccccc4O)c4ccc1[nH]4)C=C3)C=C2 [ortho-HK7, 5,10,15,20-TETRA(o-HYDROXYPHENYL) PORPHYRIN]
Necrosis (after 10J/cm^2), depth ([1]; 6.25 μM/kg, DMSO, 648 nm): 2.45 ± 0.28 mm
Necrosis (after 10J/cm^2), depth ([1]; 12.5 μM/kg, DMSO, 648 nm): 3.03 ± 0.29 mm
Necrosis (after 10J/cm^2), depth ([1]; 25.0 μM/kg, DMSO, 648 nm): 4.21 ± 0.32 mm and 3.21 ± 0.56 mm
Necrosis (after 10J/cm^2), depth ([1]; 50.0 μM/kg, DMSO, 648 nm): 4.25 ± 0.50 mm

Oc1ccc(-c2c3nc(c(-c4ccc(O)cc4)c4ccc([nH]4)c(-c4ccc(O)cc4)c4nc(c(-c5ccc(O)cc5)c5ccc2[nH]5)C=C4)C=C3)cc1 [K-HK7]
Necrosis (after 10J/cm^2), depth ([1]; 12.5 μM/kg, DMSO, 656 nm): 2.50 ± 0.44 mm
Necrosis (after 10J/cm^2), depth ([1]; 25 μM/kg, DMSO, 656 nm): 3.32 ± 0.59 mm
Necrosis (after 10J/cm^2), depth ([1]; 50 μM/kg, NaOH, 654 nm): 5.06 ± 0.12 mm

From US4837221A, “Methods of treating tumors susceptible to necrosis” (Efamol Ltd., priority 1984, dated 1989)
